Measurements taken from the supplement of paper PMC10307832.

Tests used:
Test in all cases: relative viability (nuclei count vs DMSO), 5 days (fraction); higher = more cells survive
[1] = compound: CC(O)(CS(=O)(=O)c1ccc(F)cc1)C(=O)Nc1ccc(C#N)c(C(F)(F)F)c1 [Bicalutamide] + Cc1cc(Nc2cc(N3CCN(C)CC3)nc(Sc3ccc(NC(=O)C4CC4)cc3)n2)n[nH]1 [Tozasertib] (partner 0.1 µM)
In short: (§1)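 A single step with final 0.05% Triton X-100, 1% formaldehyde and 1 ug/ml Hoechst fixed the cells and stained nuclei 5 days after treatment. Lung cancer cell lines in 1536-well plates had been treated by pin tool the day after seeding with one drug alone or a fixed anchor-drug dose plus five library-drug doses (not always all listed) in √10 steps, and nuclei were counted on 4× images. Relative viability is the ratio of nuclei in treated wells to nuclei in vehicle wells, taken as the median of duplicate plates.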

[2] = compound: C(C(=O)C(=O)O)Br [Bromopyruvate] + CS(=O)(=O)CCNCc1ccc(-c2ccc3ncnc(Nc4ccc(OCc5cccc(F)c5)c(Cl)c4)c3c2)o1 [Lapatinib] (partner 2 µM)
In short: as §1

[3] = compound: CC(O)(CS(=O)(=O)c1ccc(F)cc1)C(=O)Nc1ccc(C#N)c(C(F)(F)F)c1 [Bicalutamide] + Cc1nc(NC(=O)N2CCC[C@H]2C(N)=O)sc1-c1ccnc(C(C)(C)C(F)(F)F)c1 [Alpelisib] (partner 2 µM)
In short: as §1

[4] = compound: CC(O)(CS(=O)(=O)c1ccc(F)cc1)C(=O)Nc1ccc(C#N)c(C(F)(F)F)c1 [Bicalutamide] + O=C(c1cc(Cc2n[nH]c(=O)c3ccccc23)ccc1F)N1CCN(C(=O)C2CC2)CC1 [Olaparib] (partner 8 µM)
In short: as §1

Cell Line	relative viability ([1]; first compound 0.08 µM)	relative viability ([1]; first compound 0.253 µM)	relative viability ([1]; first compound 0.8 µM)	relative viability ([1]; first compound 2.53 µM)	relative viability ([2]; first compound 1 µM)	relative viability ([2]; first compound 3.162 µM)	relative viability ([2]; first compound 10 µM)	relative viability ([2]; first compound 31.62 µM)	relative viability ([2]; first compound 100 µM)	relative viability ([3]; first compound 0.08 µM)	relative viability ([3]; first compound 0.253 µM)	relative viability ([3]; first compound 0.8 µM)	relative viability ([3]; first compound 2.53 µM)	relative viability ([4]; first compound 0.08 µM)	relative viability ([4]; first compound 0.253 µM)	relative viability ([4]; first compound 0.8 µM)	relative viability ([4]; first compound 2.53 µM)
201T	1.01	0.917	0.962	0.793	1.03	1.06	1.03	0.942	1.02	1.05	0.93	1.01	1	0.881	0.885	0.846	0.877
A549	–	–	–	–	1.03	1.05	1.14	1.08	1	0.878	0.685	0.889	0.733	0.355	0.353	0.42	0.302
A-427	0.232	0.183	0.209	0.165	1.08	1.03	1.01	1.03	1.04	1.07	1.09	1.19	0.992	0.704	0.692	0.842	0.707
ABC-1	0.179	0.168	0.17	0.167	1.34	1.24	1.36	1.13	1.18	1.03	1.21	0.997	0.992	0.815	0.975	1.21	1.01
BEN	0.475	0.533	0.527	0.487	0.617	0.649	0.744	0.777	0.649	0.89	0.991	1.36	1.01	1.1	1.15	1.26	1.06
CAL-12T	0.267	0.332	0.324	0.373	0.669	0.698	0.794	0.748	0.902	1.39	1.09	1.44	1.1	0.753	0.711	0.769	0.63
COR-L23	0.253	0.196	0.172	0.179	0.744	0.869	1.43	0.846	0.87	0.846	0.757	0.843	0.727	0.319	0.309	0.294	0.293
COR-L 105	0.391	0.348	0.408	0.387	0.393	0.385	0.362	0.353	0.392	0.957	0.89	1	0.83	0.847	0.777	0.632	0.662
Calu-6	–	–	–	–	1.04	1.15	1.08	1.06	0.856	1.04	0.908	1.04	0.868	0.667	0.52	0.586	0.604
ChaGo-K-1	0.219	0.238	0.212	0.292	–	–	–	–	–	–	–	–	–	0.4	0.423	0.466	0.446
EBC-1	–	–	–	–	0.225	0.21	0.226	0.205	0.221	0.885	0.845	0.828	0.776	0.707	0.638	0.746	0.654
EKVX	0.372	0.315	0.386	0.371	0.218	0.213	0.343	0.207	0.211	0.846	0.827	1.01	0.829	0.917	0.861	1	0.79
EMC-BAC-2	0.346	0.285	0.289	0.249	0.832	0.922	1	0.833	0.912	0.702	0.674	0.791	0.694	0.528	0.462	0.494	0.397
EPLC-272H	0.238	0.224	0.25	0.237	1.02	1.06	0.839	0.916	1.05	1.05	1.03	0.951	0.809	0.791	0.699	0.695	0.682
H3255	0.743	0.439	–	0.604	0.272	0.321	0.239	0.249	0.273	0.697	0.618	1.14	0.649	0.564	0.558	0.554	0.551
HARA	0.128	0.099	0.103	0.182	0.825	0.829	0.707	0.9	0.844	1.01	0.767	0.931	0.876	0.871	–	1.22	0.878
HCC-15	0.428	0.394	0.365	0.228	0.868	0.873	0.849	0.856	0.844	0.935	0.897	0.985	0.86	0.77	0.685	0.769	0.657
HCC-44	1.06	0.874	0.746	1.12	0.959	1.02	1.11	1.1	1.02	0.848	0.764	0.902	0.794	1.01	1.02	1.02	1.01
HCC-78	0.43	0.351	0.472	0.347	1.04	0.893	0.702	1.03	0.591	0.288	0.327	0.452	0.253	0.709	0.651	0.889	0.766
HCC-366	0.133	0.0841	0.0976	0.0526	1.03	1.02	1.24	1.01	1.05	0.476	0.255	0.465	0.37	0.361	0.323	0.444	0.286
